Earlier results on two compounds are cited in US20100015233A1, “anti-parasitic compositions” (priority 2006, published 2010).

For series [1] the following is noted: in vivo.

Values after ≈ are worked out from the molar mass of the structure shown.

With `C[C@@H]1CC[C@H]2[C@@H](C)C(=O)O[C@@H]3O[C@@]4(C)CC[C@@H]1[C@]32OO4` [artemisinin], the solubility in water was 84 µg/mL (≈ 298 µM).

As for `CCCCN(CCCC)CC(O)c1cc(Cl)cc2c1-c1ccc(Cl)cc1/C2=C/c1ccc(Cl)cc1` (centres unmarked) [Lumefantrine], in series [1], the half-life is 72 to 140 h.
